Experimental data: patent US11427567B2, “Imidazolyl pyrimidinylamine compounds as CDK2 inhibitors” (Incyte Corporation, priority 2019, dated 2022)

Biological target: CDK2/Cyclin E1 (Homo sapiens (Human), UniProt P24941)
Assay: CDK2/Cyclin E1 HTRF enzyme activity assay (Example A)
Assay type: biochemical
Conditions: 1 mM ATP
Protocol: Assays were conducted in white 384-well polystyrene plates in a final reaction volume of 8 μL. […] HTRF signals were read after 1 hour at room temperature on a PHERAstar FS plate reader (BMG Labtech). Data was analyzed with IDBS XLFit and GraphPad Prism 5.0 software using a three or four parameter dose response curve to determine IC50 for each compound.

Structure (SMILES)	IC50 [nM]
Cc1nccc(-n2cnc(-c3nc(N[C@H]4CCN(S(C)(=O)=O)C[C@H]4F)ncc3C(F)(F)F)c2)c1Cl [Example 301, 4-(1-(3-Chloro-2-methylpyridin-4-yl)-1H-imidazol-4-yl)-N-((3R,4S)-3-fluoro-1-(methylsulfonyl)piperidin-4-yl)-5-(trifluoromethyl)pyrimidin-2-amine]	≤ 50
Cc1nc(CN2CCCCC2)ccc1-n1cnc(-c2nc(NC3CCN(S(C)(=O)=O)CC3)ncc2C(F)(F)F)c1 [Example 382, 4-(1-(2-Methyl-6-(piperidin-1-ylmethyl)pyridin-3-yl)-1H-imidazol-4-yl)-N-(1-(methylsulfonyl)piperidin-4-yl)-5-(trifluoromethyl)pyrimidin-2-amine]	≤ 50
CC(C)(O)C1CN(Cc2ccc(-n3cnc(-c4nc(NC5CCN(S(C)(=O)=O)CC5)ncc4C(F)(F)F)c3)c(Cl)c2)C1 [Example 203, 2-(1-(3-Chloro-4-(4-(2-((1-(methyl-sulfonyl)piperidin-4-yl)amino)-5-(trifluoromethyl)-pyrimidin-4-yl)-1H-imidazol-1-yl)-benzyl)azetidin-3-yl)propan-2-ol]	≤ 50
CS(=O)(=O)N1CCC(Nc2ncc(C(F)(F)F)c(-c3cn(-c4ccc(CNCC5CC5)cc4Cl)cn3)n2)CC1 [Example 191, 4-(1-(2-Chloro-4-(((cyclopropylmethyl)-amino)methyl)phenyl)-1H-imidazol-4-yl)-N-(1-(methylsulfonyl)-piperidin-4-yl)-5-(trifluoromethyl)-pyrimidin-2-amine]	≤ 50
C[C@@]1(O)CCN(CCc2cccc(-n3cnc(-c4nc(NC5CCN(S(C)(=O)=O)CC5)ncc4C(F)(F)F)c3)c2Cl)C1 [Example 374, (R)-1-(2-Chloro-3-(4-(2-((1-(methylsulfonyl)piperidin-4-yl)amino)-5-(trifluoromethyl)pyrimi-din-4-yl)-1H-imidazol-1-yl)phenethyl)-3-methylpyrrolidin-3-ol]	≤ 50
CNC(=O)c1ccc(-n2cnc(-c3nc(NC4CCN(S(C)(=O)=O)CC4)ncc3C(F)(F)F)c2)c(C)n1 [Example 132, N,6-Dimethyl-5-(4-(2-((1-(methyl-sulfonyl)piperidin-4-yl)amino)-5-(trifluoromethyl)-pyrimidin-4-yl)-1H-imidazol-1-yl)picolinamide]	≤ 50
CCN(CC)C1CCN(c2ccc(-n3cc(-c4nc(NC5CCN(S(C)(=O)=O)CC5)ncc4C(F)(F)F)nc3C)c(F)c2)CC1 [Example 413, 4-(1-(4-(4-(Diethylamino)piperidin-1-yl)-2-fluorophenyl)-2-methyl-1H-imidazol-4-yl)-N-(1-(methylsulfonyl)piperidin-4-yl)-5-(trifluoromethyl)pyrimidin-2-amine]	≤ 50
CN1CCN(c2ccc(-n3cnc(-c4nc(NC5CCN(S(C)(=O)=O)CC5)ncc4C(F)(F)F)c3)c(Cl)c2)C1=O [Example 147, 1-(3-Chloro-4-(4-(2-((1-(methyl-sulfonyl)piperidin-4-yl)amino)-5-(trifluoromethyl)-pyrimidin-4-yl)-1H-imidazol-1-yl)-phenyl)-3-methyl-imidazolidin-2-one]	≤ 50
CS(=O)(=O)N1CC[C@H](Nc2ncc(C(F)(F)F)c(-c3cn(-c4cccnc4C(F)(F)F)cn3)n2)[C@H](F)C1 [Example 48, N-((3R,4S)-3-Fluoro-1-(methylsulfonyl)piperidin-4-yl)-5-(trifluoromethyl)-4-(1-(2-(trifluoromethyl)pyridin-3-yl)-1H-imidazol-4-yl)pyrimidin-2-amine]	≤ 50
CCN1CCN(Cc2ccc(-n3cnc(-c4nc(N[C@@H]5CCN(S(C)(=O)=O)C[C@H]5F)ncc4C(F)(F)F)c3)c(Cl)c2)CC1 [Example 398, 4-(1-(2-Chloro-4-((4-ethylpiperazin-1-yl)methyl)phenyl)-1H-imidazol-4-yl)-N-((3R,4R)-3-fluoro-1-(methylsulfonyl)piperidin-4-yl)-5-(trifluoromethyl)pyrimidin-2-amine]	≤ 50
CN1CCN(Cc2ccc(-n3cnc(-c4nc(NC5CCN(S(C)(=O)=O)CC5)ncc4C(F)(F)F)c3)c(C#N)c2)CC1 [Example 344, 5-((4-Methylpiperazin-1-yl)methyl)-2-(4-(2-((1-(methylsulfonyl)piperidin-4-yl)amino)-5-(trifluoromethyl)pyrimidin-4-yl)-1H-imidazol-1-yl)benzonitrile]	≤ 50
CN(C)CCc1ccc(-n2cnc(-c3nc(NC4CCN(S(C)(=O)=O)CC4)ncc3C(F)(F)F)c2)c(C#N)c1 [Example 433, 5-(2-(Dimethylamino)ethyl)-2-(4-(2-((1-(methylsulfonyl)piperidin-4-yl)amino)-5-(trifluoromethyl)pyrimidin-4-yl)-1H-imidazol-1-yl)benzonitrile]	≤ 50

Further lines, results first:

IC50 [nM]	Structure (SMILES)
≤ 50	CN1CCN(CCc2ccc(-n3cnc(-c4nc(NC5CCN(S(C)(=O)=O)CC5)ncc4C(F)(F)F)c3)c(Cl)c2)CC1=O [Example 159, 4-(3-Chloro-4-(4-(2-((1-(methylsulfonyl)-piperidin-4-yl)-amino)-5-(trifluoro-methyl)pyrimidin-4-yl)-1H-imidazol-1-yl)phenethyl)-1-methylpiperazin-2-one]
≤ 50	Cc1nc(-c2nc(NC3CCN(S(C)(=O)=O)CC3)ncc2C(F)(F)F)cn1-c1ccc(CN2CCC2)cc1Cl [Example 284, 4-(1-(4-(Azetidin-1-ylmethyl)-2-chlorophenyl)-2-methyl-1H-imidazol-4-yl)-N-(1-(methylsulfonyl)piperidin-4-yl)-5-(trifluoromethyl)pyrimidin-2-amine]
≤ 50	CS(=O)(=O)N1CC[C@H](Nc2ncc(C(F)(F)F)c(-c3cn(CC(F)F)cn3)n2)[C@H](F)C1 [Example 330, 4-(1-(2,2-Difluoroethyl)-1H-imidazol-4-yl)-N-((3R,4S)-3-fluoro-1-(methylsulfonyl)piperidin-4-yl)-5-(trifluoromethyl)pyrimidin-2-amine]
≤ 50	CC(c1cccc(-n2cnc(-c3nc(NC4CCN(S(C)(=O)=O)CC4)ncc3C(F)(F)F)c2)c1Cl)N1CCC1 (centres unmarked) [Example 469, 4-(1-(3-(1-(Azetidin-1-yl)ethyl)-2-chlorophenyl)-1H-imidazol-4-yl)-N-(1-(methylsulfonyl)piperidin-4-yl)-5-(trifluoromethyl)pyrimidin-2-amine]
≤ 50	CC1(NCc2cccc(-n3cnc(-c4nc(NC5CCN(S(C)(=O)=O)CC5)ncc4C(F)(F)F)c3)c2Cl)CCOCC1 [Example 79, 4-(1-(2-Chloro-3-(((4-methyltetrahydro-2H-pyran-4-yl)amino)methyl)phenyl)-1H-imidazol-4-yl)-N-(1-(methylsulfonyl)piperidin-4-yl)-5-(trifluoromethyl)pyrimidin-2-amine]
≤ 50	Cc1nc(-c2nc(NC3CCN(S(C)(=O)=O)CC3)ncc2C(F)(F)F)cn1-c1ccc(N2CCNCC2)cc1F [Example 111, 4-(1-(2-Fluoro-4-(piperazin-1-yl)-phenyl)-2-methyl-1H-imidazol-4-yl)-N-(1-(methyl-sulfonyl)piperidin-4-yl)-5-(trifluoro-methyl)pyrimidin-2-amine]
≤ 50	CS(=O)(=O)N1CCC(Nc2ncc(C(F)(F)F)c(-c3cn(-c4ccc(C#N)nc4C(F)(F)F)cn3)n2)CC1 [Example 99, 5-(4-(2-((1-(Methylsulfonyl)piperidin-4-yl)amino)-5-(trifluoromethyl)pyrimidin-4-yl)-1H-imidazol-1-yl)-6-(trifluoromethyl)picolinonitrile]
≤ 50	CS(=O)(=O)N1CCC(Nc2ncc(C(F)(F)F)c(-c3cn(CC(F)(F)F)cn3)n2)CC1 [Example 23, N-(1-(Methylsulfonyl)piperidin-4-yl)-4-(1-(2,2,2-trifluoroethyl)-1H-imidazol-4-yl)-5-(trifluoromethyl)pyrimidin-2-amine]
≤ 50	Cc1nc(-c2nc(NC3CCN(S(C)(=O)=O)CC3)ncc2C(F)(F)F)cn1-c1ccc(N2CC(C)(O)C2)cc1F [Example 456, 1-(3-Fluoro-4-(2-methyl-4-(2-((1-(methylsulfonyl)piperidin-4-yl)amino)-5-(trifluoromethyl)pyrimidin-4-yl)-1H-imidazol-1-yl)phenyl)-3-methylazetidin-3-ol]
≤ 50	CS(=O)(=O)N1CCC(Nc2ncc(C(F)(F)F)c(-c3cn(-c4cccc(CN5CC(O)C5)c4Cl)cn3)n2)CC1 [Example 82, 1-(2-Chloro-3-(4-(2-((1-(methylsulfonyl)piperidin-4-yl)amino)-5-(trifluoromethyl)pyrimidin-4-yl)-1H-imidazol-1-yl)benzyl)azetidin-3-ol]
≤ 50	Cn1cnc(-c2nc(NC3CCN(S(C)(=O)=O)CC3)ncc2C(F)(F)F)c1C#N [Example 16, 1-Methyl-4-(2-((1-(methylsulfonyl)piperidin-4-yl)amino)-5-(trifluoromethyl)pyrimidin-4-yl)-1H-imidazole-5-carbonitrile]
≤ 50	CCNC(C)c1ccc(-n2cnc(-c3nc(NC4CCN(S(C)(=O)=O)CC4)ncc3C(F)(F)F)c2)c(Cl)c1 (centres unmarked) [Example 273, 4-(1-(2-Chloro-4-(1-(ethylamino)ethyl)phenyl)-1H-imidazol-4-yl)-N-(1-(methylsulfonyl)piperidin-4-yl)-5-(trifluoromethyl)pyrimidin-2-amine]
≤ 50	CN(C)Cc1ccc(-n2cnc(-c3nc(NC4CCN(S(C)(=O)=O)CC4)ncc3C(F)(F)F)c2)c(Cl)c1 [Example 175, 4-(1-(2-Chloro-4-((dimethylamino)methyl)phenyl)-1H-imidazol-4-yl)-N-(1-(methylsulfonyl)piperidin-4-yl)-5-(trifluoromethyl)pyrimidin-2-amine]
≤ 50	Cc1nc(C(=O)NC(C)C)ccc1-n1cnc(-c2nc(NC3CCN(S(C)(=O)=O)CC3)ncc2C(F)(F)F)c1 [Example 133, N-Isopropyl-6-methyl-5-(4-(2-((1-(methyl-sulfonyl)piperidin-4-yl)amino)-5-(trifluoromethyl)-pyrimidin-4-yl)-1H-imidazol-1-yl)picolinamide]
